{"source": "patent US20250032438A1", "about": "“METHOD FOR ALLEVIATING OXIDATIVE STRESS” (Nissui Corporation, priority 2021, published 2025)", "key": {"[1]": {"test_system": "Human retinal pigment epithelial cells", "assay": "Example 4: effect of protection from oxidative stress (CCK8 survival after hydrogen peroxide)", "format": "cell-based", "details": "compared to the non-treatment condition or eicosapentaenoic acid (C20:5n-3) ethyl ester at the same treatment concentration (10 or 30 μM); 24 h pre-incubation, hydrogen peroxide 24 h; FIG. 4", "procedure": "The medium was removed by suction, and then exchanged for a medium containing […] hydrogen peroxide, followed by incubation at 37° C. and 5% CO2 for 24 hours. CCK8 (DOJINDO LABORATORIES) was added to each well, and the absorbance of the sample at 450 nm after 1.5 hours was measured. The relative survival rate of each treatment section was calculated, where the absorbance value of a well without hydrogen peroxide treatment was 1. • Test section 1: control • Test section 2: hydrogen peroxide • Test section 3: 10 μM eicosapentaenoic acid […] ethyl ester+hydrogen peroxide • Test section 4: 30 μM eicosapentaenoic acid […] ethyl ester+hydrogen peroxide • Test section 5: 10 μM C34:5n-3 ethyl ester+hydrogen peroxide • Test section 6: 30 μM C34:5n-3 ethyl ester+hydrogen peroxide"}, "[2]": {"test_system": "Human alveolar epithelial cells", "assay": "Example 2: effect of protection from oxidative stress (CCK8 survival after 800 μM hydrogen peroxide)", "format": "cell-based", "details": "24 h pre-incubation, 800 μM hydrogen peroxide 8 h, FIG. 2", "procedure": "Human alveolar epithelial cells were seeded on a 96-well microplate at 8×10^3/well, and cultured overnight at 37° C. and 5% CO2. […] The medium was removed by suction, and then exchanged for a medium containing 800 μM hydrogen peroxide, followed by incubation at 37° C. and 5% CO2 for 8 hours. CCK8 (DOJINDO LABORATORIES) was added to each well, and the absorbance of the sample at 450 nm after 1.5 hours was measured. The relative survival rate of each treatment section was calculated, where the absorbance value of a well without hydrogen peroxide treatment was 1. • Test section 1: control • Test section 2: hydrogen peroxide • Test section 3: 10 μM arachidonic acid (C20:4n-6) ethyl ester+hydrogen peroxide • Test section 4: 30 μM arachidonic acid (C20:4n-6) ethyl ester+hydrogen peroxide • Test section 5: 10 μM C32:4n-6 ethyl ester+hydrogen peroxide • Test section 6: 30 μM C32:4n-6 ethyl ester+hydrogen peroxide"}, "[3]": {"test_system": "Human retinal pigment epithelial cells", "assay": "Example 3: effect of protection from oxidative stress (CCK8 survival after 300 μM hydrogen peroxide)", "format": "cell-based", "details": "compared to the non-treatment condition or arachidonic acid (C20:4n-6) ethyl ester at the same treatment concentration (10 or 30 μM); 24 h pre-incubation, 300 μM hydrogen peroxide 24 h; FIG. 3", "procedure": "The medium was removed by suction, and then exchanged for a medium containing 300 μM hydrogen peroxide, followed by incubation at 37° C. and 5% CO2 for 24 hours. CCK8 (DOJINDO LABORATORIES) was added to each well, and the absorbance of the sample at 450 nm after 1.5 hours was measured."}, "[4]": {"test_system": "Human alveolar epithelial cells", "details": "800 μM hydrogen peroxide for 1 hour, compared to non-treatment section; FIG. 1", "method": "Human alveolar epithelial cells were seeded on a 96-well microplate at 1.5×10^4/well, and cultured overnight at 37° C. and 5% CO2. The medium was removed by suction, and exchanged for a medium containing 40 μM DCFH-DA (Wako Pure Chemical Industries, Ltd.), followed by incubation for 30 minutes. […] The fluorescence intensity at each of 485 nm in excitation and 538 nm in emission was measured with a fluorescence plate reader."}, "[5]": {"details": "compared to the section treated with hydrogen peroxide alone, 10 or 30 μM"}}}
{"smiles": "CCC=CCC=CCC=CCC=CCC=CCCCCCCCCCCCCCCCCCC(=O)OCC", "note": "[C34:5n-3 ethyl ester]", "values": [{"measurement": "relative cell survival rate after hydrogen peroxide treatment", "setting": "[1]", "value": "significantly higher"}]}
{"smiles": "CCCCC/C=C\\C/C=C\\C/C=C\\C/C=C\\CCCC(=O)OCC", "note": "[arachidonic acid (C20:4n-6) ethyl ester, reference compound]", "values": [{"measurement": "relative cell survival rate after hydrogen peroxide treatment", "setting": "[2]; [5]", "value": "significantly lower"}]}
{"smiles": "CCCCC/C=C\\C/C=C\\C/C=C\\C/C=C\\CCCCCCCCCCCCCCCC(=O)OCC", "note": "[C32:4n-6 ethyl ester]", "values": [{"measurement": "relative cell survival rate after hydrogen peroxide treatment", "setting": "[2]; compared to arachidonic acid (C20:4n-6) ethyl ester at the same treatment concentration (10 or 30 μM)", "value": "significantly higher"}, {"measurement": "relative cell survival rate after hydrogen peroxide treatment", "setting": "[2]; [5]", "value": "significantly higher"}, {"measurement": "relative cell survival rate after hydrogen peroxide treatment", "setting": "[3]", "value": "significantly higher"}]}
{"smiles": "OO", "note": "[hydrogen peroxide]", "values": [{"measurement": "relative production amount of ROS (reactive oxygen species)", "setting": "[4]", "value": "significantly larger"}]}
